Test results taken from PubChem BioAssay (NCI).
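How tested: cells in 96-well plates exposed to compound for 48 hours at five concentrations. GI50 is the concentration that inhibits growth by half. TGI denotes the concentration required for complete inhibition of growth.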

Experiments:
Assay in all cases: NCI tumour cell line growth inhibition, 48 h
T-47D breast = test system: T-47D breast
MDA-MB-231 breast = test system: MDA-MB-231 breast
BT-549 breast = test system: BT-549 breast
DU-145 prostate = test system: DU-145 prostate
NCI/ADR-RES ovarian = test system: NCI/ADR-RES ovarian
MCF7 breast = test system: MCF7 breast
MDA-MB-435 = test system: MDA-MB-435

Structure (SMILES) | GI50 (T-47D breast) [µM] | TGI (T-47D breast) [µM] | GI50 (MDA-MB-231 breast) [µM] | TGI (MDA-MB-231 breast) [µM] | GI50 (BT-549 breast) [µM] | TGI (BT-549 breast) [µM] | GI50 (DU-145 prostate) [µM] | TGI (DU-145 prostate) [µM] | GI50 (NCI/ADR-RES ovarian) [µM] | TGI (NCI/ADR-RES ovarian) [µM] | GI50 (MCF7 breast) [µM] | TGI (MCF7 breast) [µM] | GI50 (MDA-MB-435) [µM] | TGI (MDA-MB-435) [µM]
CN1C(NC(=O)c2ccc(Cl)nc2)=NS(=O)(=O)c2cc(Cl)ccc21 | > 100 | > 100 | > 100 | > 100 | > 100 | > 100 | > 100 | > 100 | > 100 | > 100 | > 100 | > 100 | > 100 | > 100
CC(C)CSc1nc(Nc2ccccc2)c(C#N)c(-c2ccc(F)cc2)n1 | 2.97 | 32.8 | 2.25 | 13 | 7.24 | 32.3 | 11 | 27.7 | 4.87 | 25.3 | 22.8 | > 100 | 13 | 42.2
COc1cc([C@@H]2c3cc4c(cc3C(O[C@@H]3O[C@@H]5CO[C@@H](c6cccs6)OC5[C@H](O)[C@H]3O)C3COC(=O)[C@@H]32)OCO4)cc(OC)c1O (stereo partly drawn) | 0.0207 | 0.434 | 0.267 | 3.58 | 0.0878 | 1.31 | 0.0459 | 0.369 | 5.22 | 50 | 0.00975 | 16.5 | 0.261 | 2.12
O=C(CCCSc1nc(-c2ccc(Cl)cc2)cc(-c2ccc(Cl)cc2)n1)NO | 1.37 | 16.7 | 1.71 | 13.2 | 3.21 | 18.6 | 0.665 | 8.94 | 0.31 | 1.9 | 1.23 | 12.4 | 2.81 | 17
Cn1cc(C2=C(c3cn(CCCN=C(N)N)c4ccccc34)C(=O)NC2=O)c2ccccc21 | > 25 | > 25 | > 25 | > 25 | > 25 | > 25 | > 25 | > 25 | > 25 | > 25 | > 25 | > 25 | > 25 | > 25
C=C1C(=O)O[C@H]2[C@H]1CC/C(COC(=O)/C=C\C(=O)NCc1ccc(Cn3c(=O)sn(-c4ccc(C#N)cc4)c3=O)cc1)=C\CC[C@@]1(C)O[C@@H]21 | 0.836 | 2.18 | 0.72 | 1.74 | 0.697 | 1.65 | 0.725 | 1.4 | 1.39 | 5.97 | – | – | 0.744 | 1.5
Cc1c2c(nn1-c1ccc(S(=O)(=O)/N=C3\SCC(=O)N3C(=O)c3ccccc3)cc1)-c1ccccc1CC2 | – | – | 24 | 58.7 | 38.6 | 92.9 | 38.6 | > 100 | > 100 | > 100 | – | – | 26.1 | 60.8
CCCCn1c(-c2ccc(C(=O)O/N=C(\N)c3ccc(OC)cc3)cc2)nc(-c2ccccc2)c1-c1ccccc1 | 1.92 | 4.59 | – | – | – | – | 1.27 | 2.59 | – | – | – | – | 1.74 | 3.28
